Experimental data taken from patent publication US20180038871A1, “DIAGNOSTIC BIOMARKER TO IDENTIFY WOMEN AT RISK FOR PRETERM DELIVERY” (CEDARS-SINAI MEDICAL CENTER, priority 2009, published 2018).
“Also recorded” adds a separate entry of the source.

Tested on: Peripheral blood mononuclear cells (PBMC)
Assay: LPS-induced cytokine expression profile in PBMC with or without cortisol pretreatment (Bioplex)
Assay type: cell-based, human
Parameters: key to Cortisol Effect on IFN-g secretion level / LPS Effect on IFN-g secretion level / Cortisol Effect on TNF-a secretion level / Cortisol Effect on GM-CSF secretion level / LPS Effect on GM-CSF secretion level / Cortisol Effect on IL-2 secretion level / LPS Effect on IL-2 secretion level / Cortisol Effect on IL-4 secretion level / Cortisol Effect on IL-10 secretion level: n/c = No Change
Method: Peripheral blood mononuclear cells (PBMC) from non-pregnant (at least 5-6 years post-partum) women with history of preterm or full term delivery, in addition to the microbial component lipopolysaccharide (LPS)-induced cytokine expression profile were examined. PBMC were separated from whole blood using Ficoll gradient. The cells were counted and equal numbers of cells were plated in 24 well plates. PBMC were treated with cortisol (50 or 300 ug/ml) or media for 1 hour prior to stimulation with LPS (0, 1, or 100 ug/ml) for 24 hours.
The PBMC were lysed and the supernatant was examined for inflammatory and anti-inflammatory cytokine expression by using Bioplex technology (Bio-rad).
In this study two patients were preterm and four were full term. There were 9 samples per patient (3×3 design) and all samples from each patient were analyzed twice for cytokine concentrations with the exception of one full term subject who only had one analysis of each sample. As a result there are a total of 99 observations for each cytokine measured. The assay simultaneously measured concentrations of 11 inflammatory markers: IL-1ra (IL1-receptor antagonist), IL-2, IL-4, IL-5, IL-8, IL-10, IL-12, IL-13, GM-CSF, IFN-g, and TNF-a.
All raw data was tested via the Kolmogorov-Smirnov test to determine if the data followed a normal distribution. Log-transformations were performed for all data found to have a non-normal distribution prior to further statistical analysis. For each cytokine, a mixed effects model was used to examine all data for significant effects with the outcome variable as the cytokine concentration; the fixed predictor variables as LPS concentration, cortisol concentration, and delivery status (pre- or full-term); and the random effect due to the replicate data points. To test the interaction of the three fixed predictor variables on cytokine concentration, both first and second level interactions ware added to each cytokine model. Post-hoc testing was performed using a Student's t-test.
Using the same mixed model regression, estimated group means and standard errors were calculated. Differences between preterm and full-term pregnancies were considered significant where p <0.10.

[1] = 0 or 300 ug/ml cortisol pretreatment 1 hour, 0 or 1 ug/ml LPS 24 hours, mixed modeling
[2] = 0 or 300 ug/ml cortisol pretreatment 1 hour, 0 or 1 ug/ml LPS 24 hours, mixed modeling, listed as cortisol
[3] = all 99 observations, 300 ug/ml vs 50 ug/ml cortisol
[4] = 0 or 1 ug/ml LPS 24 hours, 0 or 300 ug/ml cortisol pretreatment, mixed modeling

C[C@]12CCC(=O)C=C1CC[C@@H]1[C@@H]2[C@@H](O)C[C@@]2(C)[C@H]1CC[C@]2(O)C(=O)CO [Cortisol, cortisol]
Cortisol Effect on GM-CSF secretion level [1]: n/c, p = .51 | Cortisol Effect on IFN-g secretion level [1]: n/c, p = .10 | Cortisol Effect on IL-1ra secretion level [1]: decrease, p = .03 | Cortisol Effect on IL-2 secretion level [1]: n/c, p = .80 | Cortisol Effect on IL-4 secretion level [1]: n/c, p = .26 | Cortisol Effect on IL-10 secretion level [1]: n/c, p = .12 | Cortisol Effect on IL-13 secretion level [1]: decrease, p = .01 | Cortisol Effect on TNF-a secretion level [1]: n/c, p = .41 | Cortisol Effect on IL-1ra secretion level [2]: suppress secretion | Cortisol Effect on IL-13 secretion level [2]: suppress secretion | Suppression of IL-1ra level, 300 ug/ml cortisol compared with 50 ug/ml [3]: more significant effect to suppress cytokine levels | Suppression of IL-10 level, 300 ug/ml cortisol compared with 50 ug/ml [3]: more significant effect to suppress cytokine levels | Suppression of IL-13 level, 300 ug/ml cortisol compared with 50 ug/ml [3]: more significant effect to suppress cytokine levels

lipopolysaccharide [LPS]
LPS Effect on GM-CSF secretion level [4]: n/c, p = .19 | LPS Effect on IFN-g secretion level [4]: n/c, p = .17 | LPS Effect on IL-1ra secretion level [4]: increased secretion; also recorded: increase, p = .09 | LPS Effect on IL-2 secretion level [4]: n/c, p = .50 | LPS Effect on IL-4 secretion level [4]: increased secretion; also recorded: increase, p = .07 | LPS Effect on IL-10 secretion level [4]: increased secretion; also recorded: increase, p = .01 | LPS Effect on IL-13 secretion level [4]: increased secretion; also recorded: increase, p = .04 | LPS Effect on TNF-a secretion level [4]: increased secretion; also recorded: increase, p = .04 | Difference between the effects of 1 ug/ml and 100 ug/ml LPS, all cytokines measured (all 99 observations, 1 ug/ml vs 100 ug/ml LPS): no significant difference
